{"source": "patent US20100168085A1", "about": "“Dopamine and agonists and antagonists thereof for modulation of suppressive activity of CD4+CD25+ regulatory T cells” (YESA RESEARCH AND DEVELOPMENT CO. LTD. at the Weizmann …, priority 2003, published 2010)", "key": {"[1]": {"system": "solid tumor cells M2R", "conditions": "Treg 2×10^6 cells exposed to dopamine 10^−5 M", "excerpt": "In another experiment, mice (n=10) were inoculated with solid tumor cells M2R, and received an immediate injection of Treg (2×10^6 cells) with and without exposure to dopamine (10^−5M). Control animals (n=10) received an injection of vehicle (PBS) following cancer cells inoculation."}, "[2]": {"system": "suppressive activity of CD4+CD25+ regulatory T cells (Treg) on Teff proliferation", "assay": "Inhibition assay (co-culturing of Teff with Treg), [3H]-thymidine incorporation", "assay_type": "cell-based, mouse", "conditions": "for Inhibitory effect on Treg activity: freshly isolated (nonactivated) Treg; for Effect on Treg suppressive activity: activated Treg", "procedure": "(xvi) Activation of CD4^+CD25^+ regulatory T cells. Purified regulatory T cells (Treg; 0.5×10^6 cells/mL) were activated in RPMI medium supplemented with L-glutamine (2 mM), 2-mercaptoethanol (5×10^−5 M), sodium pyruvate (1 mM), penicillin (100 IU/mL), streptomycin (100 μg/mL), nonessential amino acids (1 mL/100 mL), and autologous serum 2% (vol/vol) in the presence of mrIL-2 (5 ng/mL) and soluble anti-CD3 antibodies (1 ng/mL). Irradiated (2500 rad) splenocytes (1.5×10^6 cells/mL) were added to the culture. Cells were activated for 24 or 96 h. In some of the 96-h experiments, fresh dopamine was added to the culture every 24 h during activation.\n(xvii) Inhibition assay (co-culturing of Teff with Treg). Naïve effector T cells (Teff; 50×10^3 cells/well) were co-cultured with decreasing numbers of activated Treg for 72 h in 96-well flat-bottomed plates in the presence of irradiated splenocytes (10^6/mL) supplemented with anti-CD3 antibodies. [^3H]-thymidine (1 μCi) was added for the last 16 h of culture. After the cells were harvested, their [^3H]-thymidine content was analyzed by the use of […].\nIn this experiment, we examined whether dopamine acts on Treg and alters their suppressive effect on Teff. Suppression of proliferation of Teff, assayed by [^3H]thymidine incorporation, was used as a measure of suppressive effect of Treg (Thornton and Shevach, 1998).\nShevach, 1998, 2000). Inhibition of Treg proliferation, assayed by [^3H]thymidine incorporation, can therefore be taken as a measure of the suppressive effect. We examined the ability of major neurotransmitters and neuropeptides (dopamine, norepinephrine, substance P, and serotonin) to alleviate the Treg-induced suppression of Teff in vitro. Each compound was tested at several concentrations. […] After incubating the activated Treg for 2 h with a neurotransmitter or a neuropeptide, we washed the cells and then co-cultured them with Teff."}, "[3]": {"system": "mice, glutamate-induced retinal ganglion cell death", "assay": "Intravitreal glutamate toxicity, retinal ganglion cell survival", "assay_type": "in vivo, mouse", "procedure": "(iii) Intravitreal glutamate injection. The right eyes of anesthetized mice were punctured with a 27-gauge needle in the upper part of the sclera, and a 10-μL Hamilton syringe with a 30-gauge needle was inserted as far as the vitreal body. A total volume of 1 μl, of L-glutamate (400 nmol) dissolved in saline was injected into the eye.\n(iv) Retrograde labeling of retinal ganglion cells. Mice were anesthetized and placed in a stereotactic device. The skull was exposed and kept dry and clean. The bregma was identified and marked. The designated point of injection was at a depth of 2 mm from the brain surface, 2.92 mm behind the bregma in the anteroposterior axis and 0.5 mm lateral to the midline. A window was drilled in the scalp above the designated coordinates in the right and left hemispheres. The neurotracer dye FluoroGold (5% solution in saline; Fluorochrome, Denver, Colo.) was applied (1 μL, at a rate of 0.5 μL/min in each hemisphere) using a Hamilton syringe, and the skin over the wound was sutured.\n(xxi) Assessment of mouse retinal ganglion cell survival. Mice were given a lethal dose of pentobarbitone (170 mg/kg). Their eyes were enucleated and the retinas were detached and prepared as flattened whole mounts in 4% paraformaldehyde solution. Labeled cells from 4-6 selected fields of identical size (0.7 mm^2) were counted. The selected fields were located at approximately the same distance from the optic disk (0.3 mm) to overcome the variation in RGC density as a function of distance from the optic disk. Fields were counted under the fluorescence microscope (magnification ×800) by observers blinded to the identity of the retinas. The average number of RGCs per field in each retina was calculated.\nInjection of glutamate into the eyes of adult mice causes retinal ganglion cell death that is measurable 1 week after the injection (Mizrahi et al., 2002; Schori et al., 2001a; Katayama et al., 1990). We injected Balb/c mice intraperitoneally (i.p.) with the dopamine, or its specific D1-type agonist SKF-38393 (3.3 mg/kg), or its specific D1-type antagonist SCH-23390 (3 mg/kg), immediately after their exposure to glutamate toxicity. We also injected SCID Balb/c mice with SKF-38393 (3.3 mg/kg) immediately after glutamate intoxication.\nImmediately after glutamate intoxication mice were systemically injected with the indicated drugs. Neuronal survival was determined ten days later (see Materials and Methods). The results are expressed by changes (in percentage) in neuronal survival in treated mice relative to untreated mice. Each value represents a mean±SEM of a group of at least 5 animals, and each experiment was performed at least twice, independently. Asterisks (***, P<0.001; **, P<0.01) indicate statistical significance of the presented data from a single experiment using a Student's T-test statistical analysis. (NT—not tested; ns—no statistical significance)."}, "[4]": {"system": "D5-R transcripts in Treg and Teff", "conditions": "2 h with 10^−5 M", "procedure": "(§1) (xx) Polymerase chain reaction (PCR). Total RNA was purified with the RNeasy Mini Kit (Qiagen, Germantown, Md.) and transcribed into cDNA using poly dT primers. For PCR the following primers were used: […]\n(§2) This was done by assaying the expression of the dopamine type-1 receptors, D1-R and D5-R, in Treg and Teff, in the absence and in the presence of dopamine (incubation of the cells for 2 h with 10^−5 M dopamine)."}, "[5]": {"system": "D1-R transcripts in Treg and Teff", "conditions": "2 h with 10^−5 M", "procedure": "as §1, §2"}, "[6]": {"conditions": "Teff incubated 2 h with 10^−5 M"}}, "note": "Marks after values point to notes of the source that are not given here."}
{"compound": "NCCc1ccc(O)c(O)c1", "note": "[dopamine, 3,4-dihydroxyphenethylamine]", "values": [{"measurement": "Tumor development in mice injected with Treg exposed to dopamine", "setting": "[1]", "result": "did not differ from control mice"}, {"measurement": "Proliferation of Teff co-cultured with activated Treg incubated with compound versus Treg not incubated", "setting": "[2]; 10^−5 M, 2 h, Treg activated 24 h with anti-CD3 and IL-2", "result": "more than twofold higher"}, {"measurement": "Inhibitory effect on Treg activity", "setting": "[2]; 10^−5 and 10^−7 M", "result": "reproduced"}, {"measurement": "Effect on Treg suppressive activity", "setting": "[2]; 10^−7 M, 2 h", "result": "significant effect"}, {"measurement": "Effect on Treg suppressive activity", "setting": "[2]; 10^−9 M, 2 h", "result": "no significant effect"}, {"measurement": "Inhibitory effect on Treg activity", "setting": "[2]; 10^−9 M", "result": "slight and not statistically significant"}, {"measurement": "Direct effect on Teff proliferation", "setting": "[2]; [6]", "result": "did not differ"}, {"measurement": "Susceptibility of Teff to Treg suppression", "setting": "[2]; [6]", "result": "did not alter the susceptibility of Teff to Treg suppression"}, {"measurement": "Teff proliferation with treated versus untreated activated Treg", "setting": "[2]; Treg activated 96 h, 10^−5 M for 2 h at end of activation", "result": "significantly higher"}, {"measurement": "Extent of effect on Treg suppressive activity", "setting": "[2]; any of the concentrations tested", "result": "only partial"}, {"measurement": "Increase in neuronal survival relative to PBS-treated glutamate-injected controls", "setting": "[3]; Balb/c, single i.p. injection, dopamine 0.4 mg/kg, SKF-38393 3.3 mg/kg", "result": "18±2.5", "unit": "%"}, {"measurement": "Changes in neuronal survival in treated relative to untreated mice (mean±SEM)", "setting": "[3]; Wild type mice, systemic injection immediately after glutamate intoxication", "result": "18 ± 2.5*** percentage"}, {"measurement": "Increase of D5-R transcripts in Teff", "setting": "[4]", "result": 10, "unit": "fold"}, {"measurement": "Number of D5-R transcripts in Treg", "setting": "[4]", "result": "unchanged"}, {"measurement": "Number of D1-R transcripts in Treg or Teff", "setting": "[5]", "result": "did not significantly alter"}]}
